Experimental data reported in patent US20190315775A1, “MODIFIED […] AND PHARMACEUTICAL COMPOSITION HAVING SAME AS ACTIVE INGREDIENT” (KEIO UNIVERSITY, priority 2016, published 2019).

Tests used:
[1] = Dissolution in physiological saline for dosing; assay type: physicochemical; details: physiological saline (NaCl 0.9 w/v %) alone, dosing concentration
[2] = test system: KMS11 high-risk MM cell line; assay: MTT cell proliferation inhibition, KMS11; assay type: cell-based; details: Homo sapiens, KMS-11, KMS11, t(4;14), del17, 48 hours, read-out: IC50, cell proliferation inhibitory activity, KMS11
Protocol: (§1) For examination of cell proliferation inhibitory activity, high-risk MM cell lines (KMM1, KMS11, KMS21, KMS26, KMS28, KMS34) established by Takemi Otsuki et al., of Kawasaki Medical School were used (Otsuki, T. et al., Int. J. Oncol., 15: 1205-1212, 1999). […] The genetic abnormality of these cell types, and in particular deletion of p53 gene were examined by FISH method (Chang, H. Blood, 105: 358-360, 2005) (WO2010/061862A1). […] These high-risk MM cell lines were treated with drugs such as TC11, HOEtO-TC11, PEG11(E)-TC11, and PEG11(O)-TC11 at arbitrary concentrations. […] Specifically, each high-risk MM cell line was prepared at a concentration of 2×10^5 cells/ml, and then seeded in an amount of 50 μl (1×10^4 cells) per well. After 24 hours, drugs such as TC11, HOEtO-TC11, PEG11(E)-TC11, and PEG11(O)-TC11 having arbitrary concentrations were added. At 48 hours after addition of each drug, 10 μL each of an MTT labeling reagent in Cell Proliferation Kit I [MTT] (Roche Diagnostics, Basel, Switzerland) was added. After 4 hours of treatment at 37° C., 100 μL each of solution buffer was added and then left to stand overnight at 37° C. Absorbance was measured using a microplate reader Infinit™ M1000 (Tecan, Maennedorf, Switzerland) at a wavelength of 570 nm. Cell viability was found from an absorbance ratio using absorbance at 0 μM designated as 100%. IC50 was calculated from a semi-logarithmic chart using Microsoft (registered trademark) Excel.

[3] = test system: MDA-MB-231 (human breast cancer cells); assay: WST-1 proliferation assay (Example 10), MDA-MB-231; assay type: cell-based; details: WST-1, 48 hours
Protocol: Cancer cells used herein were KMS34 (human myeloma cells), HeLa (human cervical cancer cells), HCT116 (human colon cancer cells; p53+/+), KATOIII (human stomach cancer cells), MDA-MB-231 (human breast cancer cells), HT-29 (human colon adenocarcinoma cells), PANC-1 (human pancreatic cancer cells), and Li-7 (human liver cancer cells). Proliferation assay of various cancer cells was performed by the WST-1 method (Cook, J A. & Mitchell, J B., Anal. Biochem., 179, 1-7, 1984) as follows. One μ1 each of PEG11(E)-TC11 and PEG11(O)-TC11 prepared in advance at target concentrations was added into each well of a 96-well microplate. Medium was added to the wells at 50 μl per well, and then mixed by tapping lightly the plate. Subsequently, KMS34 was prepared at a concentration of 5×10^5 cells/ml, and cells other than KMS34 were prepared at a concentration of 2×10^5 cells/ml. Cells were seeded at 50 μl per well (2.5×10^4 cells, 1×10^4 cells), and then incubated in a CO2 incubator (37° C., 5% CO2) for 48 hours. […] Subsequently, the plate was shaken with a plate reader for 1 minute, and then absorbance was measured at 450 nm. At this time, absorbance was also measured at 595 nm as a reference wavelength. The net absorbance was obtained by subtracting the absorbance at the reference wavelength from the absorbance at 450 nm.

[4] = Stability in mouse blood after intraperitoneal administration (HPLC); assay type: in vivo, ICR mice; details: for Residual drug within the abdominal cavity: after intraperitoneal administration to mice; for Stability in mouse blood: i.p., equimolar to 20 mg/kg BW TC11, HPLC peaks 0.5-1.5 hours after administration
Protocol: First, PEG11(E)-TC11(A) and PEG11(O)-TC11(B) were examined for stability in mouse blood. To 5-week-old male ICR mice (CLEA Japan, Tokyo, Japan), PEG11(E)-TC11 and PEG11(O)-TC11 were administered intraperitoneally at 59.1 mg/kg BW and 54.6 mg/kg BW, respectively, in such a manner that each molar concentration was equivalent to that of 20 mg/kg BW of TC11. At 0, 0.5, 1, 1.5, 4, 8, 12, and 24 hours later, a tail vein was punctured with a 26G needle for bleeding, and then about 100 μL of blood was collected using a heparinized hematocrit capillary tube (Terumo, Tokyo, Japan). After blood collection, blood was transferred into a 0.5-mL tube, and then subjected to centrifugation at 4° C. and 3,400 G for 15 minutes. Subsequently, the supernatant was collected, and then cryopreserved at −80° C. A quality control serum, Consera (registered trademark) (Nissui pharmaceutical, Tokyo, Japan) was dissolved in 3 mL of distilled water (dH2O) per bottle. After left to stand for 30 minutes, bottles were turned upside-down (mixing by inversion) and then used. Consera (190 μL) was mixed with the collected blood plasma and 10 μL of urine, thereby preparing samples. Moreover, PEG11(E)-TC11 and HOEtO-TC11 were each diluted with dH2O in such a manner that the concentrations were 0, 2, 4, 6, 8, and 10 μM, and then 10 μL of the solution at each concentration and 190 μL of Consera were mixed, thereby preparing a calibration curve sample. Sep-Pak (registered trademark) C18 solid phase extraction cartridge (Waters Associates, Massachusetts, USA) was washed with 2 mL of 100% CH3CN, and then equilibrated with 4 mL of dH2O. Each sample and a sample for preparing a calibration curve were added to the cartridge, and then rinsed with 200 μL of dH2O. Subsequently, the resultant was washed with 2 mL of dH2O, 2 mL of 40% CH3CN, and 250 μL of 100% CH3CN, and then eluted with 1 mL of 100% CH3CN. The eluate was evaporated under vacuum using a centrifugal evaporator CVE-2000 (TOKYO […] CO, LTD, Tokyo, Japan), re-dissolution was performed with 100 μL of 100% EtOH, and then filtration was performed using a chromatodisc having a pore size of 0.45 μm (GL sciences, Tokyo, Japan). The high performance liquid chromatography (High Performance Liquid Chromatography; HPLC) apparatuses used herein are the following apparatuses manufactured by JASCO (Tokyo, Japan).
HPLC analysis was conducted using Inertsil (registered trademark) ODS-3 […]×Φ4.6 mm as a stationary phase, CH3CN:dH2O=50:50 as a mobile phase, a flow rate of 0.70 mL/min, a UV detection wavelength of 267 nm, and an excitation wavelength of 380 nm, a fluorescence wavelength of 530 nm, and an injection amount of 10 μL at a column temperature of 25° C.

[5] = test system: KMS34 high-risk MM cell line; assay: MTT cell proliferation inhibition, KMS34; assay type: cell-based; details: Homo sapiens, KMS-34, KMS34, t(4;14), del17, 48 hours, read-out: IC50, cell proliferation inhibitory activity, KMS34
Protocol: as §1

Row | Dissolution in physiological saline [1] | IC50 [3] [µM] | Residual drug within the abdominal cavity [4] | Compound | IC50 [2] [µM] | Stability in mouse blood [4] | IC50 [5] [µM]
1 | completely dissolved | 11 | no residual drug was observed | COCCOCCOCCOCCOCCOCCOCCOCCOCCOCCOCCOCCC(=O)OCCOc1cc2c(cc1N)C(=O)N(c1c(C(C)C)cccc1C(C)C)C2=O [PEG11(E)-TC11] | 1.4 | quickly hydrolyzed with esterase in blood, and converted to HOEtO-TC11 | 2.6
2 | completely dissolved | 80 | no residual drug was observed | COCCOCCOCCOCCOCCOCCOCCOCCOCCOCCOCCOCCOc1cc2c(cc1N)C(=O)N(c1c(C(C)C)cccc1C(C)C)C2=O [PEG11(O)-TC11] | 4.8 | not degraded with esterase in blood | 10.5
3 | hardly dissolved |  |  | CC(C)c1cccc(C(C)C)c1N1C(=O)c2ccc(N)cc2C1=O [TC11, 2-(2,6-di-isopropylphenyl)-5-amino-1H-isoindole-1,3-dione, reference compound] | 2 |  | 4
